# Test results taken from patent US11193941B2, “Method for evaluating condition of skin dryness” (KAO CORPORATION, priority 2014, dated 2021).
# Test system: AGR2 mRNA
# Experiment: Promoting action of humectant on AGR2 gene expression level in normal human epidermal cells (Real-Time PCR)
# Assay type: cell-based
# Conditions: NHEK, 72 hour culture; for AGR2 expression compared to that in the control: result in words; for AGR2 expression level (relative value): normalized with RPLP0, control (99.5% EtOH solvent) = 1, n=2
# Procedure: The normal human epidermal cells (NHEK) were cultured under conditions of 37° C. and 5% CO2 using EpiLife (Registered Trademark) (purchased from Kurabo). The cells were seeded in a 12 well plate at 1×10^5 cells and cultured for 48 hours, and the medium was then exchanged with a serum-free medium. Further, vitamin D3, which is a known agent for ameliorating dry skin, (99.5% ethanol solution, final concentration 1 nM or 10 nM) (Nutrients, 4(9):1213-8, 2012), eucalyptus extract (50% ethanol solution, final concentration 0.001%) (J Cosmet Dermatol, 12(1):3-11, 2013), macrocarpal, which is a major physiologically active substance of eucalyptus extract (50% ethanol solution, final concentration 10 nM) (Int J Cosmet Sci, 34(1):17-22, 2012), or 99.5% ethanol or 50% ethanol as a control was added to the medium. After 72 hour culture, total RNA was extracted from cells using RNeasy (Registered Trademark) Mini Kit (QIAGEN). The concentration of total RNA was measured and a reverse transcription reaction was carried out using a constant amount of total RNA. High capacity RNA-to-cDNA kit (Applied Biosystems) was used for the reverse transcription reaction. The expression of AGR2 mRNA was quantitatively determined from the obtained cDNA by Real-Time PCR. Taqman (Registered Trademark) Probe (AGR2: Hs00180702_m1, Applied Biosystems) was used for quantitative determination, and PRISM 7500 (Applied Biosystems) was used for detection and quantitative determination. PCR was carried out in a 20 μL reaction system and the amplification conditions were a denaturation reaction at 95° C. for 15 seconds, annealing at 60° C. for a minute and an elongation reaction. The mRNA expression level was normalized with the expression level of RPLP0 (Hs99999902_m1, Applied Biosystems) and shown as a relative value in the case where the mean expression level of AGR2 in a control (only 99.5% EtOH solvent) was considered as 1.
Compound,AGR2 expression compared to that in the control,AGR2 expression level (relative value) (final concentration 10 nM),AGR2 expression level (relative value) (final concentration 1 nM)
macrocarpal,increased,1.17,–
"C=C1CC[C@H](O)C/C1=C/C=C1\CCC[C@]2(C)[C@@H]([C@H](C)CCCC(C)C)CC[C@@H]12 [Vitamin D3, vitamin D3]",increased,1.17,1.05
